{"source": "paper PMC7151078", "about": "“A Novel NMDA Receptor Antagonist Protects against Cognitive Decline Presented by Senescent Mice” (Pharmaceutics, 2020)", "key": {"[1]": {"assay": "Microsomal stability in rat microsomes", "format": "in vitro ADME", "settings": "37 °C, 0-60 min", "experimental": "(§1) The human, rat, and mice microsomes employed were purchased from Tebu-Xenotech. The compound was incubated at 37 °C with the microsomes in a 50 mM phosphate buffer (pH = 7.4) containing 30 mM MgCl2, 10 mM NADP, 100 mM glucose-6-phosphate and 20 U/mL glucose-6-phosphate-dehydrogenase. Samples (75 µL) were taken from each well at 0, 10, 20, 40, and 60 min and transferred to a plate containing 4 °C 75 µL acetonitrile. Then, 30 µL of 0.5% formic acid in water was added to improve the chromatographic conditions. The plate was centrifuged (46,000× g, 30 min) and supernatants were taken and analyzed in a UPLC-MS/MS (Xevo-TQD, Waters) by employing a BEH C18 column and an isocratic gradient of 0.1% formic acid in water: 0.1% formic acid acetonitrile (60:40) for 5 minutes and a flow of 0.25 mL/min. The metabolic stability of the compounds was calculated from the logarithm of remaining compounds at each time point studied."}, "[2]": {"assay": "Microsomal stability in mice microsomes", "format": "in vitro ADME", "settings": "37 °C, 0-60 min", "experimental": "as §1"}, "[3]": {"target": "T1, CYP2C9 (Homo sapiens, UniProt P11712)", "T1 construct": "host or cells: insect cell microsomes", "T1 sequence (P11712 whole entry)": "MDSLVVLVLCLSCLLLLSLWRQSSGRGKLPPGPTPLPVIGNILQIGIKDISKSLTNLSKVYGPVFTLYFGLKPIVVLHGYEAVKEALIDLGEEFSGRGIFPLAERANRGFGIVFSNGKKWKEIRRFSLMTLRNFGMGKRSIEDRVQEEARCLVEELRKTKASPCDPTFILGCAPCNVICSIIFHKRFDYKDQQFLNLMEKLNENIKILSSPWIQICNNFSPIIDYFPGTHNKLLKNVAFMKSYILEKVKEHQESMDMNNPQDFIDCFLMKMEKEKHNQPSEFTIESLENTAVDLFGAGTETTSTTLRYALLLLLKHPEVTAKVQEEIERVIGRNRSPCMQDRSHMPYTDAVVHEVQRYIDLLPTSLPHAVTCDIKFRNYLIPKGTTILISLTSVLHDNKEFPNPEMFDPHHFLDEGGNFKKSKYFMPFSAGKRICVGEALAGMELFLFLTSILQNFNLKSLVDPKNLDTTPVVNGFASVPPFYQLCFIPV", "assay": "Cytochrome inhibition, fluorescent detection (7-MFC substrate)", "format": "in vitro ADME", "settings": "recombinant human CYP2C9", "experimental": "To screen the inhibition potential of the compounds, recombinant human cytochrome P450 enzymes (CYP1A2, CYP2C9, CYP2C19, CYP2D6, and CYP3A4) and probe substrates were used with the fluorescent detection method. Incubations were conducted in 200-µL volume 96 well microtiter plates (COSTAR 3915). Addition of cofactor-buffer mixture (KH2PO4 buffer, 1.3 mM NADP+, 3.3 mM MgCl2, 3.3 mM Glucose-6-phosphate and 0.4 U/mL Glucose-6-phosphate Dehydrogenase), supersomes control, standard inhibitors (Furafyline, Tranylzypromine, Ketoconazole, Sulfaphenazole, and Quinidine; from Sigma Aldrich), and test compounds to plates were carried out using a a liquid handling station (Zephyr Caliper). The plate was then pre-incubated at 37 °C for 5 min, and the reaction initiated by the addition of pre-warmed enzyme/substrate (E/S) mix. […] Fluorescence per well was measured using a fluorescence plate reader (Tecan M1000 pro), and the percentage of inhibition was calculated."}, "[4]": {"test_system": "SAMR1 and SAMP8 mice", "assay": "Hippocampal gene expression by real-time qPCR", "format": "in vivo, mouse", "settings": "hippocampus", "experimental": "Male SAMR1 and SAMP8 mice (n = 41) with 20-weeks-old were used to carry out cognitive and molecular analysis. The animals were randomly divided into four groups: SAMR1 control (SR1 Ct) group (n = 11), SAMP8 control (SP8 Ct) group (n = 8), SAMR1 treated with RL-208 (SR1 RL-208 (5 mg/Kg)) group (n = 10) and SAMP8 treated with RL-208 (SP8 RL-208 (5 mg/Kg)) group (n = 12). Animals had free access to food and water, under standard temperature conditions (22±2 °C) and 12h:12h light-dark cycles (300 lux/0 lux). RL-208, (3,4,8,9-tetramethyltetracyclo[4.4.0.0^3,9.0^4,8]dec-1-yl)-methylamine hydrochloride, (5 mg/kg/day) was administered through drinking water for four weeks before starting the cognitive test. RL-208 was administered up to euthanasia (Figure 1A). Water consumption was controlled each week for each cage and strain. Afterwards, RL-208 concentration was adjusted accordingly to reach the optimal dose for each cage. Total RNA isolation from hippocampal samples was carried out using TRIsure^TM reagent following the manufacturer’s instructions (Bioline, Meridian Bioscience Inc., UK). The yield, purity, and quality of RNA were determined spectrophotometrically with a NanoDrop^TM ND-1000 (Thermo Scientific, Wilmington, DE, USA) apparatus and an Agilent 2100B Bioanalyzer (Agilent Technologies, Palo Alto, CA, USA). RNAs with 260/280 ratios and RIN higher than 1.9 and 7.5, respectively, were selected. Reverse transcription-polymerase chain reaction (RT-PCR) was performed as follows: 2 μg of messenger RNA (mRNA) was reverse-transcribed using the High Capacity cDNA Reverse Transcription kit (Applied Biosystems, Foster City, CA, USA). Real-time quantitative PCR (qPCR) was used to quantify the mRNA expression of OS and synaptic plasticity genes listed in Table S2. SYBR® Green real-time PCR was performed on a Step One Plus Detection System (Applied-Biosystems, Foster City, CA, USA) employing SYBR® Green PCR Master Mix (Applied-Biosystems, Foster City, CA, USA). Each reaction mixture contained 6.75 μL of complementary DNA (cDNA) (which concentration was 2 μg), 0.75 μL of each primer (which concentration was 100 nM), and 6.75 μL of SYBR® Green PCR Master Mix (2X). Data were analyzed utilizing the comparative cycle threshold (Ct) method (ΔΔCt), where the housekeeping gene level was used to normalize differences in sample loading and preparation. Normalization of expression levels was performed with β-actin for SYBR® Green-based real-time PCR results. Each sample was analyzed in duplicate, and the results represent the n-fold difference of the transcript levels among different groups."}}, "data": [{"smiles": "CC12CC3CC1(C)C1(C)CC3(CN)CC21C.Cl", "note": "[RL-208, (3,4,8,9-tetramethyltetracyclo [4.4.0.0^3,9.0^4,8]dec-1-yl)methylamine hydrochloride]", "values": [{"measurement": "microsomal stability", "setting": "[1]", "value": "good"}, {"measurement": "microsomal stability", "setting": "[2]", "value": "good"}, {"measurement": "CYP2C9 inhibition", "setting": "[3]", "value": "12 ± 2", "unit": "%"}, {"measurement": "Tgf gene expression", "setting": "[4]; RL-208 treated mice groups vs control groups", "value": "significant gain"}, {"measurement": "Vgf gene expression", "setting": "[4]; SP8 RL-208 vs SP8 Ct", "value": "significant increase"}, {"measurement": "Vgf gene expression", "setting": "[4]; between SR1 mice groups", "value": "no changes"}, {"measurement": "Cox2 gene expression", "setting": "[4]; treated groups vs controls, significant in the SP8 strain", "value": "decreased"}, {"measurement": "Hmox1 gene expression", "setting": "[4]; treated mice", "value": "elevated"}]}]}
